According to patent US6506799B1, “Methods of treating cardiovascular diseases, dyslipidemia, dyslipoproteinemia, and hypertension with ether compounds” (Esperion Therapeutics, Inc., priority 1999, dated 2003):

Legend:
female obese Zucker rats = assay: Experiment A: serum lipids, glucose, non-esterified fatty acids and weight gain in obese female Zucker rats after seven days; assay type: in vivo, rat; settings: 86 mg/kg
Method: Dosing vehicle, Compound A (86 mg/kg of body weight) or troglitazone (120 mg/kg of body weight) was administered to eight week old female obese Zucker rats daily for seven days in the morning by oral gavage in 1.5% carboxymethylcellulose/0.2% Tween-20. Troglitazone was obtained commercially. Finely crushed tablets were suspended in vehicle for dosing. Orbital blood samples were obtained following a six-hour fast prior to the initial dose and also following the seventh dose.
Blood serum was assayed for total cholesterol and triglycerides (FIG. 5), lipoprotein cholesterol profiles (FIG. 6), VLDL plus LDL cholesterol combined (also referred to as apo B containing lipoprotein cholesterol or non-HDL cholesterol), HDL cholesterol, and the ratio of HDL cholesterol to that of VLDL plus LDL cholesterol (FIG. 7), serum glucose, and non-esterified fatty acids (FIG. 8), and percent weight gain (FIG. 9). […] In particular, Compound A caused a marked elevation in HDL cholesterol after one week of treatment. Using the serum total cholesterol values (FIG. 5A) and the lipoprotein cholesterol distribution (FIG. 6), the amount of cholesterol associated with non-HDL (i.e., VLDL plus LDL) and HDL were determined (FIG. 7). […] In contrast, troglitazone reduced non-HDL and HDL cholesterol by 67% and 4%, respectively.

[1] = test system: chow fed obese female Zucker rats; assay: Experiments B, C, D, E: serum lipids, glucose, insulin, body and liver weight in obese female Zucker rats, 14 days; assay type: in vivo, rat; settings: for Body Weight Gain (% of Pretreatment) / HDL-Cholesterol (% of Pretreatment) / Non HDL-Cholesterol (% of Pretreatment) / Triglycerides (% of Pretreatment): 14 days
Method: In a number of different experiments, illustrative compounds of the invention and troglitazone were administered daily at various doses to 10-week old chow fed obese female Zucker rats for 14 days in the morning by oral gavage in 1.5% carboxymethylcellulose/0.2% Tween-20 (dosing vehicle). Animals were weighed daily. Animals were allowed free access to rodent chow and water throughout the study. Blood glucose was determined after a 6-hour fast in the afternoon without anesthesia from a tail vein. Serum was also prepared from a blood sample subsequently obtained from the orbital venous plexus (with O2/CO2 anesthesia) prior to and after one week treatment and used lipid and insulin determinations. At two weeks, blood glucose was again determined after a 6-hour fast without anesthesia from a tail vein. Soon thereafter, animals were sacrificed by CO2 inhalation in the evening and cardiac blood serum was collected and assessed for various lipids and insulin. Body weight was determined daily prior to dosing and at the time of euthanasia.

[2] = test system: LDL receptor deficient mice; assay: Lipoprotein cholesterol profile in LDL receptor-deficient mice; assay type: in vivo; settings: 300 mg/kg/day, chow-fed female mice
Text: The effect of Compound A on LDL levels in a murine model of homozygous familial hypercholesterolemia (Ishibashi et al., 1993, J. Clin. Invest. 92:883-893; Ishibashi et al., 1994, J. Clin. Invest. 93:1885-1893) was studied. LDL receptor-deficient mice have elevated LDL cholesterol relative to wild type mice when fed a chow diet. When fed cholesterol-enriched diets, these mice develop atherosclerosis.

3T3-L1 cells = assay: Insulin sensitization: 14C-acetate incorporation into lipids in 3T3-L1 preadipocytes; assay type: cell-based; settings: preadipocytes treated 4 days; insulin-dependent (30 nM insulin); FIG. 20
Method: The effects of Compound A on rate of differentiation of 3T3-L1 cells from a “committed pre-adipocyte” to an “adipocyte” phenotype in the absence or presence of insulin is tested. The differentiation of 3T3-L1 cells to an adipocyte-like phenotype is highly dependent upon insulin. […] In this assay the degree of differentiation was a reflection of the rate of lipid synthesis, as measured through incorporation of ^14C-acetate over 2 hours.
3T3-L1 stem cells were induced to differentiate with dexamethasone, isobutylmethylxanthine and insulin (Green and Kehinde, 1975, Cell 5:19-27). Cells were plated in Dulbecco's modified Eagle medium containing 10% calf serum and grown to confluence. Cells were then refreshed with 10% fetal calf serum, and treated with 0.5 mM isobutylmethylxanthine and 250 nM dexamethasone, but no additional insulin, for 48 hours. […]
The preadipocytes were then treated for 4 days with various concentrations of Compound A in 5% fetal calf serum in Dulbecco's modified Eagles medium, with or without a submaximal concentration of insulin (30 nM). […] Cell were then washed with phosphate buffered saline, lysed with 0.1 N NaOH, and ^14C-acetate incorporation into lipids was determined using phase separation and liquid scintillation counting.

[3] = Experiment C, 100 mg/kg, after two weeks of treatment

For `CC(C)(CO)CCCCOCCCCC(C)(C)CO` [Compound A, 6-(6-hydroxy-5,5-dimethylhexyloxy)-2,2-dimethyl-hexan-1-ol], the “change of non-HDL cholesterol (VLDL plus LDL)” value (female obese Zucker rats; one week) was “+10.3%”, the “increase of HDL cholesterol” value (female obese Zucker rats; one week) was 3.9 fold and the “reduction of non-esterified fatty acids” value (female obese Zucker rats; one week) was 52%. The “reduction of serum triglycerides” value (female obese Zucker rats; one week) was 68%, the serum glucose (female obese Zucker rats; one week) was “did not induce a hypoglycemic state” and the “ratio of HDL/non-HDL cholesterol” value (female obese Zucker rats; one week treatment, pre-treatment 4.2) was 14.9. For the same molecule, the “increase of the ratio of HDL/non-HDL cholesterol” value (female obese Zucker rats; one week, vs pre-treatment) was 3.6 fold, the “increase of total serum cholesterol” value (female obese Zucker rats; one week, vs pre-treatment) was 3.3 fold and the “increase in body weight” value (female obese Zucker rats; seven days, vehicle 6.6%) was 5.4%. The “Body Weight Gain (% of Pretreatment)” value ([1]; Experiment C, 1 mg/kg/day) was “+16.7 % of Pretreatment”, the “HDL-Cholesterol (% of Pretreatment)” value ([1]; Experiment C, 1 mg/kg/day) was −24.1 % of Pretreatment and the “Non HDL-Cholesterol (% of Pretreatment)” value ([1]; Experiment C, 1 mg/kg/day) was −25.6 % of Pretreatment. The “Triglycerides (% of Pretreatment)” value ([1]; Experiment C, 1 mg/kg/day) was −8.8 % of Pretreatment, the “Body Weight Gain (% of Pretreatment)” value ([1]; Experiment C, 3 mg/kg/day) was “+17.5 % of Pretreatment” and the “HDL-Cholesterol (% of Pretreatment)” value ([1]; Experiment C, 3 mg/kg/day) was −3.7 % of Pretreatment. The “Non HDL-Cholesterol (% of Pretreatment)” value ([1]; Experiment C, 3 mg/kg/day) was −29.6 % of Pretreatment, the “Triglycerides (% of Pretreatment)” value ([1]; Experiment C, 3 mg/kg/day) was −24.6 % of Pretreatment and the “Body Weight Gain (% of Pretreatment)” value ([1]; Experiment C, 10 mg/kg/day) was “+10.7 % of Pretreatment”. For the same molecule, the “HDL-Cholesterol (% of Pretreatment)” value ([1]; Experiment C, 10 mg/kg/day) was “+154.4 % of Pretreatment”, the “Non HDL-Cholesterol (% of Pretreatment)” value ([1]; Experiment C, 10 mg/kg/day) was −14.2 % of Pretreatment and the “Triglycerides (% of Pretreatment)” value ([1]; Experiment C, 10 mg/kg/day) was −50.9 % of Pretreatment. The “Body Weight Gain (% of Pretreatment)” value ([1]; Experiment C, 30 mg/kg/day) was “+11.3 % of Pretreatment”, the “HDL-Cholesterol (% of Pretreatment)” value ([1]; Experiment C, 30 mg/kg/day) was “+369.7 % of Pretreatment” and the “Non HDL-Cholesterol (% of Pretreatment)” value ([1]; Experiment C, 30 mg/kg/day) was “+38.4 % of Pretreatment”. For the same molecule, the “Triglycerides (% of Pretreatment)” value ([1]; Experiment C, 30 mg/kg/day) was −42.0 % of Pretreatment, the “glucose to insulin ratio” value ([1]; Experiment C, 100 mg/kg) was “reduced” and the “Body Weight Gain (% of Pretreatment)” value ([1]; Experiment C, 100 mg/kg/day) was “+9.2 % of Pretreatment”. The “HDL-Cholesterol (% of Pretreatment)” value ([1]; Experiment C, 100 mg/kg/day) was “+801.8 % of Pretreatment”, the “Non HDL-Cholesterol (% of Pretreatment)” value ([1]; Experiment C, 100 mg/kg/day) was “+45.1 % of Pretreatment” and the “Triglycerides (% of Pretreatment)” value ([1]; Experiment C, 100 mg/kg/day) was −57.0 % of Pretreatment. For the same molecule, the HDL-cholesterol increase [1, 3] was 802%, the “elevation of HDL-cholesterol” value [1, 3] was 9 fold and the blood glucose ([1]; Experiment C, 100 mg/kg, fasted) was “tendency to lower blood glucose”. For the same molecule, the “glucose to insulin ratio” value ([1]; Experiment C, 1 and 3 mg/kg, two weeks) was “declined by approximately ⅓ to ½”, the weight gain ([1]; Experiment C, 10, 30 and 100 mg/kg, after one and two weeks) was “markedly reduced” and the “glucose to insulin ratio” value ([1]; Experiment C, 10 and 30 mg/kg) was “sustained at pretreatment levels”. For the same molecule, the “minimal effective dose for reduction in serum triglycerides” value ([1]; Experiment C, FIG. 10) was “approximately 3 mg/kg”, the “dose at which elevation of serum total cholesterol begins” value ([1]; Experiment C, FIG. 11) was “approximately 10 mg/kg/day” and the “percent liver to body weight” value ([1]; Experiment C, after two weeks of treatment, FIG. 16) was “increased in a dose dependent manner”. The serum triglyceride levels ([1]; Experiment C, doses 1-100 mg/kg, FIG. 10) was “reduced serum triglyceride levels at all doses”, the “rise in serum insulin” value ([1]; Experiment C, higher doses (10, 30, 100 mg/kg)) was “largely curtailed or minimized” and the “Body Weight Gain (% of Pretreatment)” value ([1]; Experiment D, 10 mg/kg/day) was “+2.2 % of Pretreatment”. The “HDL-Cholesterol (% of Pretreatment)” value ([1]; Experiment D, 10 mg/kg/day) was “+133.9 % of Pretreatment”, the “Non HDL-Cholesterol (% of Pretreatment)” value ([1]; Experiment D, 10 mg/kg/day) was “+49.3 % of Pretreatment” and the “Triglycerides (% of Pretreatment)” value ([1]; Experiment D, 10 mg/kg/day) was −11.1 % of Pretreatment. The “Body Weight Gain (% of Pretreatment)” value ([1]; Experiment D, 100 mg/kg/day) was “+4.5 % of Pretreatment”, the “HDL-Cholesterol (% of Pretreatment)” value ([1]; Experiment D, 100 mg/kg/day) was “+187.9 % of Pretreatment” and the “Non HDL-Cholesterol (% of Pretreatment)” value ([1]; Experiment D, 100 mg/kg/day) was “+7.5 % of Pretreatment”. The “Triglycerides (% of Pretreatment)” value ([1]; Experiment D, 100 mg/kg/day) was −62.9 % of Pretreatment, the “Body Weight Gain (% of Pretreatment)” value ([1]; Experiment E, 100 mg/kg/day) was “+19.1 % of Pretreatment” and the “HDL-Cholesterol (% of Pretreatment)” value ([1]; Experiment E, 100 mg/kg/day) was “+232.1 % of Pretreatment”. The “Non HDL-Cholesterol (% of Pretreatment)” value ([1]; Experiment E, 100 mg/kg/day) was “+7.2 % of Pretreatment”, the “Triglycerides (% of Pretreatment)” value ([1]; Experiment E, 100 mg/kg/day) was −43.2 % of Pretreatment and the LDL cholesterol ([2]; after one week of treatment) was “rapid and significant reduction”. For the same molecule, the HDL ([2]; seven daily treatments) was “HDL elevation in all treated mice” and the “increase of 14C-acetate incorporation into lipids” value (3T3-L1 cells) was “approximately 40%”.
